Reference: patent publication US8883812B2, “Piperidinyl pyrimidine amides as Kv7 potassium channel openers” (Pfizer Inc., priority 2010, dated 2014)

How the values were obtained:
[1] = Predicted human efficacious concentration; details: unbound plasma
[2] = tested on: Male Wistar Han IGS rats; assay: Safety studies - behavioral observations (rat DRF); details: for Rat DRF Dose, Threshold for MCS / Rat DRF Dose, NOEL / Rat DRF Dose, Threshold for SAE: oral gavage, single dose; for Rat DRF Dose, Threshold for MCS: manageable clinical signs; for Rat DRF Dose, NOEL: no observable effect limit; for Rat DRF Dose, Threshold for SAE: serious adverse event; for Rat DRF Dose, Threshold for MCS / Rat DRF Dose, NOEL / Rat DRF Dose, Threshold for SAE / margin with regards to serious adverse events: rat; for margin with regards to serious adverse events: text statement comparing with retigabine
[3] = Compound concentrations (exposure) in rat DRF safety study
[4] = in vivo; details: male, Wistar Han IGS (CRL:WI [Han]), rat, po
[5] = read-out: Rat DRF Cmax, Threshold for MCS, oral gavage, at MCS threshold dose
[6] = read-out: Rat DRF Cmax, Threshold for SAE, oral gavage, at SAE threshold dose
[7] = ratio of free brain exposure at the dose to projected human concentration

SMILES | Predicted human Ceff Cp,u [1] [nM] | Rat DRF Dose, Threshold for MCS [2] [mg/kg] | Rat DRF Dose, NOEL [2] [mg/kg] | Rat DRF Dose, Threshold for SAE [2] [mg/kg] | margin with regards to serious adverse events [2] [×] | Cmax ([3]; read-out: Rat DRF Cmax, NOEL, oral gavage, at NOEL dose) [nM] | Cmax [3, 5] [nM] | Cmax [3, 6] [nM] | Cmax [4] [nM] | Rat DRF TI (toxicity index), NOEL [2, 7] | Rat DRF TI (toxicity index), Threshold for MCS [2, 7] | Rat DRF TI (toxicity index), Threshold for SAE [2, 7]
CCOC(=O)Nc1ccc(NCc2ccc(F)cc2)cc1N [Retigabine, N-(2-amino-4-(4-fluorobenzylamino)-phenyl)carbamic acid ethyl ester, reference compound] | 607 | 30 to 50 | 30 | 50 | 3.9 | 870 | 870 to 2390 | 2390 |  |  |  | 
COc1nc(N2CCC(OC)CC2)nc(OC)c1NC(=O)CC(C)(C)C [Example 1, N-(4,6-dimethoxy-2-(4-methoxypiperidin-1-yl)pyrimidin-5-yl)-3,3-dimethylbutanamide] | 13 | 10 | 3 | 100 | 69 |  | 99 | 866 | 54 | 4.2 | 7.6 | 67
